Tests used:
[1] = biological target: T1, IFIT1 (Homo sapiens, UniProt P09914); experiment: Binding ability of mRNA to IFIT1, RNA co-immunoprecipitation and qPCR in Hela cells; details: 2 ug mRNA/well, cells collected after 24 hours, relative to ^m7GpppApG cap, mean±SD
T1 construct: endogenous in cells; host or cells: Hela cells (ATCC CCL-2)
T1 sequence (P09914 1-478): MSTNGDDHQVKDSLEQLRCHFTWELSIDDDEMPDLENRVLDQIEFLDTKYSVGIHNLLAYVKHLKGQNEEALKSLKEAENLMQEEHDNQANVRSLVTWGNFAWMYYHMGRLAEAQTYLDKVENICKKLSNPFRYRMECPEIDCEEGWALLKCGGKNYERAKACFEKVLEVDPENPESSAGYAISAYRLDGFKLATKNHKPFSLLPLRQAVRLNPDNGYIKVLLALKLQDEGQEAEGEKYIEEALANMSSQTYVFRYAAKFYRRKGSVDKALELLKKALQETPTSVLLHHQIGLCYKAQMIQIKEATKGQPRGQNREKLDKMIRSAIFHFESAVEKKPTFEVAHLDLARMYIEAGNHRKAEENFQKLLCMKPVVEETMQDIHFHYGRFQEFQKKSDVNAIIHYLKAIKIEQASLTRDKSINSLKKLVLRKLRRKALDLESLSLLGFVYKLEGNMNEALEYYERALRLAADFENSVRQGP
Procedure: In this example, Hela cells (ATCC CCL-2) were transfected with luciferase mRNAs (Gaussia luciferase) comprising various initial cap structures (the initial cap nucleotide structures comprised are: ^m7GpppApG, ^m7GpppA2′Ome pG, ^m7G3′OmepppA2′O-ethylpG, ^m7G2′OmepppA2′O-ethylpG, ^m7G3′Omeppp A2′O-MOEpG, ^m7G2′O-mepppA2′O-MOEpG, ^m7Gppp(N6-methyladenine)2′O-MOEpG, ^m7G2′OmepppC2′O-ethylpC, ^m7G3′OmepppA2′O-MOEpU), and collected after 24 hours. The intracellular proteins RIG-I and IFIT1 were co-precipitated with the RNAs to which they bound by RNA co-immunoprecipation. The mRNAs were subjected to reverse transcription and real-time quantitative PCR, and the relative abundance of the mRNAs is proportional to their RIG-I and IFIT1 binding ability.
(§1) Hela cells were seeded at a cell density of 4×10^5/well in 6-well plates, and transfected with mRNA at 2 ug mRNA/well when the cell density reached about 80% using Lipofectamine MessengerMAX Transfection Reagent (Invitrogen) according to the transfection steps in the instruction. The cells were collected after 24 hours, and incubated at RT for 10 minutes after the addition of fixative solution. The reaction was then terminated by adding glycine at a suitable concentration, and the cells were collected by centrifugation. Appropriate amount of lysis solution was added to the cells. The mixture was incubated on ice for 30 minutes and centrifuged to collect supernatant. Appropriate amount of (2-4 ng) anti-RIG-I and IFIT1 antibodies (Abcam) were added to the supernatant, and the mixture was incubated overnight at 4° C. on a shaker, and then 20 ul Protein A/G magnetic beads were added and incubated for 2 hours at 4° C. on a shaker. The beads were rinsed using magnetic grate for 5 minutes and repeated 3 times. After that, 1 mL TRIzol reagent was added to the magnetic beads to extract RNAs which were then reverse transcribed into cDNAs. The expression of related genes was detected using real-time quantitative fluorescent PCR with B-actin as the internal reference. The detection of each gene was repeated 3 times, and the result of the expression of each gene is expressed as the relative value to the result of ^m7GpppApG cap.
The intracellular proteins RIG-I and IFIT1 were co-precipitated with the RNAs to which they bound by RNA co-immunoprecipitation. The mRNAs were subjected to reverse transcription and real-time quantitative PCR, and the relative abundance of the mRNAs is proportional to their RIG-I and IFIT1 binding ability.
as §1, with “(Invitrogen) as the transfection reagent” for “(Invitrogen)”, “was” for “was then”

[2] = system: Thermostable T7 RNA polymerase (NEB); details: Example 3, thermostable T7 RNA polymerase IVT at 50° C. for 2 hs, LC-MS
Procedure: The LC-MS analyses involved in determining capping efficiency in the following examples are as follows: • Equipment: Waters UPLC H-Class • Column: ACQUITY UPLC Oligonucleotide BEH C18, 2.1*150 mm • Column temperature: 75° C. • Mobile phase A: 200 mM hexafluoroisopropanol+8.15 mM triethylamine pH7.9 • Mobile phase B: methanol • Flow rate: 0.3 mL/min • Gradient:
Initial cap oligonucleotides are ^m7GpppApG, ^m7G pppA2′Ome PG (control), ^m7GBeta-D-LNApppA2′O-MOEpG, and ^m7GAlpha-L-LNApppA2′O-ethyl pG, respectively. • reacting at 50° C. for 2 hs, • adding DNase I (1U), and reacting at 37° C. for 30 mins. (5) Treatment with Antarctic Phosphatase:
For each tested initial cap oligonucleotide, the ratio of capped mRNA was assessed by analyzing liquid chromatography-mass spectrometry (LC-MS) results. In the experiment, a DNA probe complementary to the mRNA was used. Upon the hybridization of the DNA to the RNA, RNaseH specifically hydrolyzed the phosphodiester bond in the RNA to produce small fragments of RNAs with homogeneous 3′ end. The molecular weight and percentage of the small RNA fragments were determined by LC-MS, and were used to determine capping of the RNAs in the transcription reaction. Since the presence and absence of cap at 5′ end can be distinguished by the molecule weight, the capping efficiency can be determined via the molecule weight and percentage of trunked 5′ end-containing RNAs. In addition, from the calculation of the molecule weight, it can be determined that the caps added are the capping nucleotides.

Substance | Relative binding ability to IFIT1 ([1]; Example 2) | Capping efficiency [2] | Relative binding ability to IFIT1 ([1]; Example 3 (IVT at 50° C.))
^m7G2′OmepppA2′O-MOEpG | 0.66 ± 0.02 | – | –
^m7G2′OmepppA2′O-ethylpG | 0.84 ± 0.08 | – | –
^m7G2′OmepppC2′O-ethylpC | 0.91 ± 0.05 | – | –
^m7G3′OmepppA2′O-MOEpG | 0.76 ± 0.04 | – | –
^m7G3′OmepppA2′O-MOEpU | 1.19 ± 0.07 | – | –
^m7G3′OmepppA2′O-ethylpG | 0.89 ± 0.13 | – | –
^m7GAlpha-L-LNApppA2′O-ethyl pG | – | 63% | 0.55 ± 0.07
^m7GBeta-D-LNApppA2′O-MOEpG | – | 70% | 0.49 ± 0.04
^m7Gppp(N6-methyladenine)2′O-MOEpG | 0.79 ± 0.01 | – | –
^m7GpppA2′Ome pG [reference compound] | 0.88 ± 0.01 | 95% | 0.84 ± 0.09
^m7GpppApG [reference compound] | 1 ± 0.04 | 93% | 1 ± 0.19
